# Earlier results in US20140234375A1, “Compositions and Methods for Eliciting an Immune Response to Escape Mutants of Targeted Therapies” (priority 2005, published 2014).
# How the values were obtained:
# HCV NS3 serine protease = HCV NS3 serine protease (Hepatitis C virus genotype 1b, UniProt Q9WMX2); settings: in vitro, major resistance mutation
# HIV gp41 = settings: valine to alanine at amino acid 38 (V38A)
# HIV-1 variants = settings: by 8 weeks of therapy
compound,measurement,setting,value
CCC[C@H](NC(=O)[C@@H]1[C@H]2CCC[C@H]2CN1C(=O)[C@@H](NC(=O)[C@@H](NC(=O)c1cnccn1)C1CCCCC1)C(C)(C)C)C(=O)C(=O)NC1CC1 [VX-950],frequency of Ser substitution (A156S) at amino acid 156,HCV NS3 serine protease; share of samples,79%
enfuvirtide,resistance to enfuvirtide,HIV gp41,45 fold
COc1ccc2c(O[C@@H]3C[C@H]4C(=O)N[C@]5(C(=O)O)C[C@H]5/C=C\CCCCC[C@H](NC(=O)OC5CCCC5)C(=O)N4C3)cc(-c3csc(NC(C)C)n3)nc2c1 [BILN 2061],frequency of Ala substitution (D168A) at amino acid 168,HCV NS3 serine protease,24%
same,frequency of Val substitution (D168V) at amino acid 168,HCV NS3 serine protease,64%
"Cc1ccnc2c1NC(=O)c1cccnc1N2C1CC1 [Nevirapine, nevirapine]",decrease in susceptibility of patient isolates,HIV-1 variants,greater than 100 fold
